Experimental findings from publication PMC7667534, “Calixarbutin: A Novel Calixarene-based Potential Water-soluble Anti-tyrosinase Agent with High Anti-melanoma Activity” (Iranian Journal of Pharmaceutical Research : IJPR, 2020) are described below.

The target of test [1] is Mushroom tyrosinase. Put plainly: DOPA-chrome assay with L-DOPA ([…]), mushroom tyrosinase […] U/mL, absorbance at […] nm; reference inhibitor measured by the authors. It is filed as biochemical. Particulars: read-out: Anti-tyrosinase activity (IC50).
Test [2] has as its target Mushroom tyrosinase. Put plainly: DOPA-chrome assay with L-DOPA ([…]), mushroom tyrosinase […] U/mL, absorbance at […] nm. The settings on record: read-out: Anti-tyrosinase activity (IC50). It is filed as biochemical.

By IC50 is commonly meant the concentration at which inhibition is half-maximal.

Regarding `OC[C@H]1O[C@@H](Oc2ccc(O)cc2)[C@H](O)[C@@H](O)[C@@H]1O` [Arbutin], the IC50 on Mushroom tyrosinase [1] turned out to be 168 ± 7 µM.
On to `OC[C@H]1O[C@@H](Oc2c3cc(O)cc2Cc2cc(O)cc(c2O[C@@H]2O[C@H](CO)[C@@H](O)[C@H](O)[C@H]2O)Cc2cc(O)cc(c2O[C@@H]2O[C@H](CO)[C@@H](O)[C@H](O)[C@H]2O)Cc2cc(O)cc(c2O[C@@H]2O[C@H](CO)[C@@H](O)[C@H](O)[C@H]2O)C3)[C@H](O)[C@@H](O)[C@@H]1O` [compound 4], for which, at Mushroom tyrosinase [2], the half-maximal inhibitory concentration (IC50) worked out at 26 ± 1 µM.
